Reference: US20030069187A1, “Elastase inhibitors” (priority 2001, published 2003)

Experiments:
[1] = target: T1, porcine pancreatic elastase (PPE) (Sus scrofa, UniProt P00772); experiment: Elastase inhibitory capacity assay with succinylated elastin substrate; type: biochemical; conditions: 0.029 U PPE, 200 μg succinylated elastin; for increase in elastase inhibitory capacity compared to total EDP: 37° C. 30 min, % inhibition standardized to μg protein, p<0.001
T1 construct: purchased Calbiochem, San Diego, Calif
T1 sequence (P00772 27-266): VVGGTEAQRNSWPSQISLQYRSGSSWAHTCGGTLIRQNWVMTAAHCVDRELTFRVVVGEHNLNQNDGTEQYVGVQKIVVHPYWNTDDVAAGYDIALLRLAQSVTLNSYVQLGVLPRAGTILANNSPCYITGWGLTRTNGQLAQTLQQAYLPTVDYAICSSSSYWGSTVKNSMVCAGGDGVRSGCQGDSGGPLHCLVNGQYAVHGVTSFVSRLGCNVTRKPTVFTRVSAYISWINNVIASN
Method: FIG. 1 is a bar graph depicting results from experiments in which the inhibitory capacity of each EDP isolate was evaluated in triplicate using 200 μg of succinylated elastin (Rao et al., 1997; Mathrubutham et al., 1998), 30 μg of Total EDP, […] of G-25 fractions and RP-HPLC fractions and 0.029 U PPE in 150 μl with 50 mM sodium borate pH8.5. Reactions were incubated at 37° C. for 30 minutes, then treated with 2,4,6-trinitrobenzene sufonic acid. Absorbance at A450nm was determined after 20 min at room temperature. Elastase inhibitory capacity was evaluated by comparing the activity of PPE in the presence and absence of EDP, where elastase in the absence of EDP was considered to represent 100% elastase activity. The data was standardized to protein content and is presented as % inhibition per μg of protein. […] PEP7 is VPG; PEP8 is AGIP and PEP9 is AFP.
Total EDP was fractionated on a G-25 Sephadex column equilibrated with 50 mM sodium borate pH 8.5 at a flow rate of 0.7 ml/minute. G-25 inhibitory fractions were then analyzed by reverse phase high performance liquid chromatography (RP-HPLC) using a C-18 column (Vydac, Hesperia, Calif.) with 5% acetonitrile, 0.1% triflouroacetic acid pH 2.3 as RP buffer at a flow rate of 0.5 ml/minutes and monitored at A205nm. Fractions were collected, dried, and resuspended in 50 μl water and assayed for elastase inhibitory capacity (Rao et al., 1997; Mathrabutham et al., 1998). The inhibitory capacity of G-25 and RP-HPLC EDP fractions were evaluated (Rao et al., 1997; Mathrabutham et al., 1998) using 3 μg of G-25 fraction and RP-HPLC peptide with 0.029 U PPE. Percentage inhibitory capacity was evaluated by comparing the activity of PPE in the presence and absence (100% activity) of EDP and standardized to μg protein. The inhibitor constant (Ki) was experimentally calculated (Lineweaver et al., 1936). […]

elastase = conditions: other elastase inhibitors, compared with AFP; cited from earlier work

In the case of “Ala-Gly-Ile-Pro (AGIP; printed: Ala-Gly-Ile-Pro)”, the “increase in elastase inhibitory capacity compared to total EDP” value [1] is reported as 4.3 fold.
In the case of VGVAPG, the “elastase inhibition (% inhibition per μg of protein)” value ([1]; FIG. 1) is reported as “elastase inhibition is a characteristic that is not shared by all EDPs”.
For CC(C)C[C@H](NC(=O)N[C@H](C(=O)N[C@@H](CCC(N)=O)C(=O)N[C@@H](C)C=O)[C@@H]1CCNC(=N)N1)C(=O)O [elastatinal], the Ki (elastase) is given as 50 µM.
With Val-Pro-Gly [VPG] the “increase in elastase inhibitory capacity compared to total EDP” value [1] was 4.8 fold.
